pIC50: −log10 of the molar value. Blank lines part the entries; values can stand above or below the compound they belong to.
Columns and labels:
[1] = Half life in Sprague dawley rat at 5 mg/kg, po measured upto 24 hrs; format: ADME, organism-based; settings: in vivo
[2] = Clearance in Sprague dawley rat at 1 mg/kg, iv measured upto 24 hrs; format: ADME, organism-based; settings: in vivo
[3] = Cmax in Sprague dawley rat at 1 mg/kg, iv measured upto 24 hrs; format: ADME, organism-based; design: route intravenous, dose 1 mg/kg, time <=24; settings: in vivo
[4] = AUC (0-t) in Sprague dawley rat at 5 mg/kg, po measured upto 24 hrs; format: ADME, organism-based; design: route oral, dose 5 mg/kg, time <=24; settings: in vivo
[5] = Oral bioavailability in Sprague dawley rat at 5 mg/kg measured upto 24 hrs; format: ADME, organism-based; settings: in vivo
[6] = Volume of distribution at steady state in Sprague dawley rat at 1 mg/kg, iv measured upto 24 hrs; format: ADME, organism-based; settings: in vivo, read-out: Vdss
[7] = Half life in Sprague dawley rat at 1 mg/kg, iv measured upto 24 hrs; format: ADME, organism-based; settings: in vivo
[8] = AUC (0-t) in Sprague dawley rat at 1 mg/kg, iv measured upto 24 hrs; format: ADME, organism-based; design: route intravenous, dose 1 mg/kg, time <=24; settings: in vivo
[9] = species on record: Homo sapiens; test: Selectivity index, ratio of IC50 for recombinant human MAO-A expressed in Sf9 cells to IC50 for recombinant human MAO-B expressed in Sf9 cells
[10] = Cmax in Sprague dawley rat at 5 mg/kg, po measured upto 24 hrs; format: ADME, organism-based; design: route oral, dose 5 mg/kg, time <=24; settings: in vivo
[11] = target: T1, Amine oxidase [flavin-containing] B (Homo sapiens, UniProt P27338); test: Inhibition of recombinant human MAO-B expressed in Sf9 cells preincubated for 15 min followed by addition of benzylamine and measured after 60 min by Luminex assay
T1 sequence (P27338 whole entry): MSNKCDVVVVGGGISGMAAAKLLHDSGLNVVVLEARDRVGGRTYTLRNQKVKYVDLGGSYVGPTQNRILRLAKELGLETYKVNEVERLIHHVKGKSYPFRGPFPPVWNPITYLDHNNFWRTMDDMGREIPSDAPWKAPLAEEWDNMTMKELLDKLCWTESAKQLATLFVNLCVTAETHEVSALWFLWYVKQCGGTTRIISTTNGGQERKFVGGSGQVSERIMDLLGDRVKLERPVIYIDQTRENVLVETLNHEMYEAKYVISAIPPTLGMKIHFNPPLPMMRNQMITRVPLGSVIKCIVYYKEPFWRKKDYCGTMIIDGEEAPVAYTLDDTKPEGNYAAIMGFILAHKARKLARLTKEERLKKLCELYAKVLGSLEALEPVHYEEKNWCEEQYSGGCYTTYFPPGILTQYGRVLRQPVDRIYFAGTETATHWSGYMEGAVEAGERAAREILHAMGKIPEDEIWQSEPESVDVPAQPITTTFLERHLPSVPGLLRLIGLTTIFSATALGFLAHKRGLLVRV

[12] = target: T2, Amine oxidase [flavin-containing] A (Homo sapiens, UniProt P21397); test: Inhibition of recombinant human MAO-A expressed in Sf9 cells preincubated for 15 min followed by addition of p-tyramine and measured after 60 min by Luminex assay
T2 sequence (P21397 whole entry): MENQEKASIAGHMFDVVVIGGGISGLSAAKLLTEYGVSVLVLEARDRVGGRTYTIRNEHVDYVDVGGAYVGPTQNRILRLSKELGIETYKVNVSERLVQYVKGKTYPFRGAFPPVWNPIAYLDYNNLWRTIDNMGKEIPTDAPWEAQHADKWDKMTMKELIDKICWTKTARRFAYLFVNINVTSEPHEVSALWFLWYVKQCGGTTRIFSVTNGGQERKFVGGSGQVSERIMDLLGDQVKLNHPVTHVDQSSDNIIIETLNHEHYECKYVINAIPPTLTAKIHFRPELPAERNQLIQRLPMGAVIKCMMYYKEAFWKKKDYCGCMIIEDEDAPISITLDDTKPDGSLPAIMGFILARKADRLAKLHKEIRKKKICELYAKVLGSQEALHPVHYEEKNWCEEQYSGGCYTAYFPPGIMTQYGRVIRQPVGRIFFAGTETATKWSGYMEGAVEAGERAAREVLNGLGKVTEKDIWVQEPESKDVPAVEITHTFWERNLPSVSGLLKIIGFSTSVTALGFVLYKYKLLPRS

[13] = AUC (0-t) in Cynomolgus monkey rat at 5 mg/kg, po measured upto 24 hrs; format: ADME, organism-based, Macaca fascicularis; design: route oral, dose 5 mg/kg, time <=24; settings: in vivo
[14] = Half life in Cynomolgus monkey rat at 5 mg/kg, po measured upto 24 hrs; format: ADME, organism-based, Macaca fascicularis; settings: in vivo
[15] = AUC (0-t) in Cynomolgus monkey at 1 mg/kg, iv measured upto 24 hrs; format: ADME, organism-based, Macaca fascicularis; design: route intravenous, dose 1 mg/kg, time <=24; settings: in vivo, 24 h
[16] = Cmax in Cynomolgus monkey at 1 mg/kg, iv measured upto 24 hrs; format: ADME, organism-based, Macaca fascicularis; design: route intravenous, dose 1 mg/kg, time <=24; settings: in vivo
[17] = Half life in Cynomolgus monkey at 1 mg/kg, iv measured upto 24 hrs; format: ADME, organism-based, Macaca fascicularis; settings: in vivo
[18] = Toxicity in MPTP-induced C57BL/6 mouse model of Parkinson's disease assessed as effect on locomotor activity by measuring rearing activity at 10 mg/kg, ip pretreated for 15 mins followed by MPTP challenge and measured after 5 days post MPTP challenge; format: organism-based; settings: in vivo, 120 h, time 5 day
[19] = Volume of distribution at steady state in Cynomolgus monkey at 1 mg/kg, iv measured upto 24 hrs; format: ADME, organism-based, Macaca fascicularis; settings: in vivo, read-out: Vdss
[20] = Oral bioavailability in Cynomolgus monkey rat at 5 mg/kg measured upto 24 hrs; format: ADME, organism-based, Macaca fascicularis; settings: in vivo
[21] = Cmax in Cynomolgus monkey rat at 5 mg/kg, po measured upto 24 hrs; format: ADME, organism-based, Macaca fascicularis; design: route oral, dose 5 mg/kg, time <=24; settings: in vivo

SMILES: NC(=O)[C@@H]1CCCN1Cc1ccc(OCc2cccc(F)c2)cc1
half-life [1]: 1.27 h
clearance [2]: 47.1 mL/min/kg
Cmax [3]: 809 ng/mL
AUC(0-t) at 24 h [4]: 284 ng·h/mL
bioavailability [5]: 16.3%
Vd [6]: 1.11 L/kg
half-life [7]: 0.37 h
AUC(0-t) at 24 h [8]: 347 ng·h/mL
Ratio IC50 [9]: 168
Cmax [10]: 163 ng/mL

SMILES: NC(=O)[C@@H]1C[C@@H](F)CN1Cc1ccc(OCc2cccc(F)c2)cc1
pIC50 [11]: 6.11
Ratio IC50 [9]: 31
pIC50 [12]: 4.62

SMILES: NC(=O)[C@@H]1C[C@H](O)CN1Cc1ccc(OCc2cccc(F)c2)cc1
pIC50 [11]: 6.37
Ratio IC50 [9]: 196
pIC50 [12]: 4.07

SMILES: NC(=O)[C@@H]1C[C@@H](O)CN1Cc1ccc(OCc2cccc(F)c2)cc1
pIC50 [11]: < 5.00

SMILES: Cc1cc(OCc2cccc(F)c2)ccc1CN1C[C@@H](F)C[C@H]1C(N)=O
pIC50 [11]: 6.09
Ratio IC50 [9]: 25
pIC50 [12]: 4.69

SMILES: NC(=O)[C@@H]1C[C@@H](F)CN1Cc1ccc(OCc2cccc(F)c2)cc1F
pIC50 [11]: 5.66
Ratio IC50 [9]: 13
pIC50 [12]: 4.55

SMILES: C[C@@H]1C[C@@H](C(N)=O)N(Cc2ccc(OCc3cccc(F)c3)cc2)C1
pIC50 [11]: 5.66
Ratio IC50 [9]: 19
pIC50 [12]: 4.38

Further lines, with some results ahead:

pIC50 [11]: < 5.00
SMILES: NC(=O)[C@H]1C[C@@H](F)CN1Cc1ccc(OCc2cccc(F)c2)cc1

pIC50 [11]: 7.09
half-life [1]: 0.96 h
clearance [2]: 79.1 mL/min/kg
Cmax [3]: 174 ng/mL
AUC(0-t) at 24 h [4]: 176 ng·h/mL
bioavailability [5]: 16.9%
Vd [6]: 4.56 L/kg
half-life [7]: 0.73 h
AUC(0-t) at 24 h [8]: 209 ng·h/mL
Cmax [10]: 69.1 ng/mL
pIC50 [12]: 4.56
SMILES: C[C@H]1C[C@@H](C(N)=O)N(Cc2ccc(OCc3cccc(F)c3)cc2)C1
Ratio IC50 [9]: 335

pIC50 [11]: 6.15
pIC50 [12]: 5.17
SMILES: NC(=O)[C@H]1C[C@H](F)CN1Cc1ccc(OCc2cccc(F)c2)cc1
Ratio IC50 [9]: 10

half-life [1]: 1.02 h
clearance [2]: 65.5 mL/min/kg
AUC(0-t) at 24 h [13]: 13100 ng·h/mL
half-life [14]: 4.6 h
AUCt [15]: 2120 ng·h/mL
Cmax [16]: 1080 ng/mL
Cmax [3]: 282 ng/mL
AUC(0-t) at 24 h [4]: 795 ng·h/mL
bioavailability [5]: 63.2%
Vd [6]: 4.21 L/kg
half-life [7]: 1.03 h
half-life [17]: 2.74 h
Vd [19]: 7.15 L/kg
AUC(0-t) at 24 h [8]: 253 ng·h/mL
bioavailability [20]: 111%
Cmax [10]: 423 ng/mL
Cmax [21]: 1970 ng/mL
SMILES: C[C@H](NCc1ccc(OCc2cccc(F)c2)cc1)C(N)=O [SAFINAMIDE]
Activity [18]: Non-Toxic

pIC50 [11]: < 5.00
SMILES: NC(=O)[C@@H]1C[C@@H](F)CN1Cc1ccc(OCc2cccc(F)c2)cc1Cl

pIC50 [11]: 6.85
pIC50 [12]: 5.29
SMILES: NC(=O)[C@@H]1C[C@H](F)CN1Cc1ccc(OCc2cccc(F)c2)cc1Cl
Ratio IC50 [9]: 37

pIC50 [11]: < 5.00
SMILES: Cc1cc(OCc2cccc(F)c2)ccc1CN1C[C@H](F)C[C@H]1C(N)=O

pIC50 [12]: 4.53
SMILES: NC(=O)[C@@H]1C[C@H](F)CN1Cc1ccc(OCc2cccc(F)c2)cc1F
Ratio IC50 [9]: 979

— ChEMBL document CHEMBL5042493, “Enhancing monoamine oxidase B inhibitory activity via chiral fluorination: Structure-activity relationship, biological evaluation, and molecular docking study” (Eur J Med Chem, 2022)
